Results on 17 compounds are retold here after PubChem BioAssay (NCI).

What all share (assay): inhibition of tumour cell growth, NCI panel, 48 h
The test system of test [1] is A498 renal.
Test [2] has as its system MOLT-4 leukemia.
Test [3] has as its system SF-295 CNS.
Test [4] has as its system SF-539 CNS.
The test system of test [5] is SNB-19 CNS.
For test [6], the system named is RPMI-8226 leukemia.
For test [7], the system named is MALME-3M melanoma.
Test [8] has as its system SK-MEL-28 melanoma.

Structures are written as SMILES.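 Following 48 hours of exposure in 96-well plates, responses at five concentrations were used to interpolate endpoints linearly. Definition used: TGI = concentration required for complete inhibition of growth.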

In the case of `Cc1cc(Cl)ccc1NC(=O)CCCC(=O)C1CCCC1=O` (centres undefined), the TGI in test [1], in test [2], in test [3], in test [4], in test [5] and in test [6] was more than 100 µM in each case. In test [7], this compound yielded a TGI of more than 100 µM.
Regarding `O=C(Nc1cc(Cl)c(Cl)cc1Cl)C(=O)C1C=CCS1(=O)=O` (centres undefined), the TGI in test [1], in test [2], in test [3], in test [8], in test [4] and in test [5] was more than 100 µM throughout. In addition, the TGI in test [6] and in test [7] was more than 100 µM in each case.
Regarding `CCCCCCCCC[C@@H]1CC(=O)OCC2OC(O[C@H](CCCCCCCCC)CC(=O)OCC3OC(O[C@H](CCCCCCCCC)CC(=O)OCC4OC(O1)C(O)C(O)C4O)C(O)C(O)C3O)C(O)C(O)C2O` (some centres undefined), the TGI in test [1] turned out to be 27.9 µM; in test [2] it was 20.6 µM; in test [3] it was 27.1 µM; in test [8], 18.6 µM; in test [4], 23.2 µM; in test [5], 23.6 µM. Moreover, the TGI worked out at 32.7 µM in test [6] and 22.3 µM in test [7].
For the compound `O=S(=O)(N/N=C/c1ccc(/C=N/NS(=O)(=O)c2ccccc2)cc1)c1ccccc1`, the TGI in test [1] was more than 100 µM; in test [2], 60.9 µM; in test [3] it was 45.6 µM; in test [8] it was more than 100 µM; in test [4] it was 93.3 µM; in test [6] it was more than 100 µM. This compound also displayed a TGI in test [7] of more than 100 µM.
For the compound `O=[N+]([O-])c1cccc(C2N3CCCCC3[C@@H]3c4[nH]c5ccccc5c4CCN23)c1` (some centres undefined), the TGI was 29.5 µM in test [1]; more than 100 µM in test [2]; 31.4 µM in test [3]; 29.8 µM in test [8]; 29.7 µM in test [4]; 45.6 µM in test [5]. For the same compound, the TGI in test [6] is more than 100 µM; in test [7], 18.9 µM.
Consider `COc1c2nc(CCl)[nH]c(=O)c2c(OC)c2nc(CCl)[nH]c(=O)c12`, for which the TGI in test [2], in test [3], in test [8], in test [4], in test [5] and in test [6] was more than 100 µM in each case. Moreover, in test [7], the TGI was more than 100 µM.
Turning to `CC/C(C)=C1\CCC(CN2CCOCC2)C1=O` (centres undefined), the TGI in test [1] is 39.1 µM; in test [2], more than 100 µM; in test [3], more than 100 µM; in test [8], 32 µM; in test [4], 35 µM; in test [5] it was more than 100 µM. For the same compound, the TGI came out at 15.9 µM in test [6] and 33 µM in test [7].
`CC1C[C@@]2(c3ccccc3)C(=O)CCC[C@H]2N1` (some centres undefined): the TGI in test [1], in test [2], in test [3], in test [8], in test [4] and in test [5] was more than 100 µM throughout. In addition, the TGI in test [7] is more than 100 µM.
As for `C=CC1(C(=O)O)CCC(C(C)(C)C)CC1` (centres undefined), the TGI in test [1], in test [2], in test [3], in test [4], in test [5] and in test [6] was more than 100 µM throughout. In addition, in test [7], the TGI is more than 100 µM.
Regarding `O=C1OC(CC(=O)c2ccc(Cl)c(Cl)c2)C(Cl)=C1Cl` (centres undefined), the TGI in test [1], in test [2], in test [3], in test [8], in test [4] and in test [5] was more than 100 µM each time. Besides, the TGI in test [6] and in test [7] was more than 100 µM each time.
As for `CC(=O)OCC1OC(N2C(=O)C(=O)c3cc(C)ccc32)C(OC(C)=O)C(OC(C)=O)C1OC(C)=O` (centres undefined), the TGI in test [1] is more than 100 µM; in test [2] it was more than 100 µM; in test [3] it was more than 100 µM; in test [8], 91.8 µM; in test [4] it was more than 100 µM; in test [5] it was more than 100 µM. For the same compound, the TGI was 70.1 µM in test [6] and more than 100 µM in test [7].
Consider `CCNC(=O)CCN(C(=O)O)S(=O)(=O)c1ccc(NC(=O)c2ccccc2)cc1`, for which the TGI in test [1], in test [2], in test [3], in test [8], in test [4] and in test [5] was more than 100 µM in each case. Besides, the TGI in test [6] and in test [7] was more than 100 µM throughout.
As for `NNC(=O)/C(=C/c1ccc(Cl)c(Cl)c1)NC(=O)c1ccccc1`, the TGI in test [2], in test [3], in test [8], in test [5], in test [6] and in test [7] was more than 100 µM each time.
For `CC1=C(C(=O)Nc2ccccc2C)C(c2ccc(Cl)c(Cl)c2)C(C(=O)Nc2ccccc2C)=C(C)N1`, the TGI in test [1] was 61.8 µM; in test [2], 48.8 µM; in test [3], 43.2 µM; in test [8], 71.1 µM; in test [4] it was 49.6 µM; in test [5], more than 100 µM. In addition, the TGI in test [6] was 53.7 µM; in test [7] it was 52.3 µM.
Regarding `CCOC(=O)NC(=O)c1cn(CC(=O)NCC(=O)NCC(=O)NCCCN2CCN(CCCNC(=O)CNC(=O)CNC(=O)Cn3cc(C(=O)NC(=O)OCC)c(=O)[nH]c3=O)CC2)c(=O)[nH]c1=O`, the TGI in test [1], in test [2], in test [3], in test [8], in test [4] and in test [5] was more than 100 µM in each case. Besides, the TGI in test [7] is more than 100 µM.
Turning to `COc1cc(Cl)c2c3c(c(C(C)=O)oc13)CCC2`, the TGI in test [1], in test [3], in test [8], in test [4], in test [5] and in test [6] was more than 100 µM throughout.
In the case of `COc1cc(/C=C(\C#N)C(=O)c2ccccc2)ccc1OCc1ccccc1`, the TGI in test [2], in test [3], in test [8], in test [4], in test [5] and in test [6] was more than 100 µM in each case.
